What was measured:
[1] = Aqueous CIR stability test (LC-MS hydrolytic stability in PBS); type: physicochemical; conditions: PBS with 1% DMSO; ≈10 μM in 1% DMSO/PBS, room temperature; read-out: t1/2 (hydrolytic stability, intact CIR) (converted)
Description: Stability studies were conducted on a Sciex 4000 QTRAP, ESI-LCMS Triple Quadrupole Mass Spectrometer connected to an Agilent 1200 HPLC. All molecules were diluted 100× in PBS from a stable frozen DMSO stock solution reaching a final concentration of ≈10 μM in 1% DMSO/PBS and incubated for different amounts of time at room temperature, prior to LC-MS injection using a gradient of 95:5 to 5:95 (0.1% Formic Acid (aq)) water: ACN over 15 minutes. The integrations of the Absorbance values at 355-365 nm, were determined corresponding to the DNP moiety. The absorbance values corresponding to intact CIR were divided by the sum of intact and hydrolyzed CIR (the imidazole-DNP fragment) to determine fraction CIR intact changing with time. The fraction of intact CIR versus time was plotted on GraphPad Prism 8 using a “Dissociation—One Phase Decay” to extract the half life.
LC-MS analysis of the hydrolytic stability of CIRs 1, 3, and 4 in PBS was performed. The curve fit was done using a monoexponential decay which represents intact CIR plotted as a function of peak integration (corresponding to DNP absorbance) overtime.

[2] = tested on: PSMA coated beads; experiment: Flow cytometry ADCP assay, PSMA coated beads and U937 monocytes; type: cell-based, human; conditions: 400 nM CIR 3, 200 nM anti-DNP IgG, 10% FBS+RPMI
Description: 24 hours prior to inducing phagocytosis, 6 million U937 monocytes were seeded at 500,000 cells/mL and activated with IFN-γ ([…]). These cells were then counted and washed twice with serum free assay media (neat RPMI). Cells were then suspended to a concentration of 1 million cells/mL and stained with 1.9 μM Vybrant™ DiD Cell-Labelling Solution for 30 minutes (37° C., 5% CO2). Cells were then washed 3× with warm assay media (AM, 10% Ultra Low IgG FBS in RPMI) and resuspended to a concentration of 1.5 million cells/mL for use.
5.6 million YG strep beads were washed 3× with PBS and resuspended in 150 μL of a saturating concentration of biotinylated-PSMA solution. This was allowed to incubate at 4° C. for 1 hour and then washed 3× with serum free AM. The beads were resuspended with AM to a concentration of 15 million beads/mL for use.
All stocks were made in AM. The initial anti-DNP antibody stock solution was made (320 μL of 200 nM). 75 μL of this was removed and 0.4 μL of PMPA solution was added (250 mM in DMSO). […] Beads were detected in the PE-Cy7 channel, monocytes were detected in the APC Cy7 channel, PSMA loading was confirmed with the Alexa 647 channel. […] ADCP was determined by plotting monocyte stain against bead stain, and was quantified as % Target Phagocytosis=(Double Positive Events)/PSMA Bead Target Events+Double Positive Events×100. […]

## O=C(O)CC[C@H](NC(=O)N[C@@H](CCCCNC(=O)NCCOCCOCCOCCOCCOCCOCCOCCOC(=O)n1cnc(CCNC(=O)CNc2ccc([N+](=O)[O-])cc2[N+](=O)[O-])c1)C(=O)O)C(=O)O [CIR 3]
[1]
  half-life: ~12 h
[2]
  ADCP of PSMA coated beads: could selectively affect ADCP of PSMA coated target beads via covalent recruitment of anti-DNP, in a time dependent manner
